Reference: US8846739B2, “TGR5 agonists” (Exelixis Patent Company LLC, priority 2009, dated 2014)

Experiments:
human TGR5 (h-TGR5) = target: T1, human TGR5 (h-TGR5) (Homo sapiens, UniProt Q8TDU6); assay: TGR5/CRE-Luciferase Assay; type: cell-based; conditions: HEK 293 hTGR5/CRE-Luc cells, 6 hours incubation, read-out: CRE-Luc Agonist (EC50)
T1 sequence (Q8TDU6 1-330): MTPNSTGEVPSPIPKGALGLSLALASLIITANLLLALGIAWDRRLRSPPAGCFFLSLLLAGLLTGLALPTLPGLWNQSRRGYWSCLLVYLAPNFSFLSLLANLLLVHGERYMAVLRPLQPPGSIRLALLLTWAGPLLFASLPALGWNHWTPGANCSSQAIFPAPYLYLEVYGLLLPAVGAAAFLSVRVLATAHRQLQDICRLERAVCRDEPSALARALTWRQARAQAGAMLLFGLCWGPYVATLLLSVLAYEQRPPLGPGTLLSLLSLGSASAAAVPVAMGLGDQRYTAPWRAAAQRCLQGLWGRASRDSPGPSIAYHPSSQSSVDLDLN
Description: HEK 293 cells stably expressing human TGR5 (h-TGR5) or mouse TGR5 (m-TGR5) were generated from HEK 293 CRE-Luciferase cells. The day before the assay, HEK 293 hTGR5/CRE-Luc cells were plated in DMEM in a 384 well assay plate at a density of 25 k cells/45 μL per well and grown for 18-20 hours. Compounds were serially diluted in DMEM containing 5% DMSO and 5 µL of compound or media alone was transferred to each well and plates were incubated for 6 hours. Following incubation, 30 μL of lysis/luciferase buffer was added to each well. The luciferase activity was then measured on the EnVision™ plate reader and the dose response data was analyzed using ActivityBase.
(§1) In the following tables, ECso values determined according to the TGR5 cAMP Assay are noted (cAMP); EC50 values determined according to the TGR5/CRE-Luciferiase Assay are noted (CRE-Luc).

h-TGR5 = target: T2, h-TGR5 (Homo sapiens, UniProt Q8TDU6); assay: TGR5 cAMP Assay using Cisbio cAMP Dynamic 2 htrf assay kit; type: cell-based; conditions: hTGR5CRE-luc HEK 293 cells
T2 sequence (Q8TDU6 1-330): T1 sequence (Q8TDU6 1-330)
Description: Compounds were diluted in DPBS with 5% DMSO (8-point serial dilution by half logs) in a 96-well plate and 1 μL was transferred to a 384-well assay plate in quadruplicate. The d2-cAMP and anti-cAMP Ab-cryptate stock solution were prepared as per the instructions in the Cisbio™ (Bedford, Mass.) kit. Cells (hTGR5CRE-luc HEK 293 and mTGR5CRE-luc HEK 293) were harvested using cell dissociation buffer and resuspended in DPBS. Cells were adjusted to 0.44×10^6 cells/ml followed by addition of IBMX to a final concentration of 0.5 mM. The cells were then mixed with d2-cAMP solution (7.1 mL cells+100 ul d2-cAMP) and 4000 cells (9 μL) were transferred to each well of the 384-well assay plate. Cells without d2-cAMP were added to eight wells as a negative control. The plate was covered and incubated at room temp for 30 min. Then 10 μL of Ab-cryptate solution was added to each well of the assay plate and incubated for 1 hr. The plate was read on an EnVision™ plate reader (Perkin-Elmer, Waltham, Mass.) and the DeltaF value was calculated as per the instructions in the Cisbio™ kit.
as §1

Molecule	EC50 (human TGR5 (h-TGR5))	EC50 (h-TGR5)
COc1cc(C(C)(C)c2cnc(SCc3c(F)cc(S(=O)(=O)N[C@H]4CCC[N+](C)(C)C4)cc3Cl)n2-c2ccc(F)cc2)ccc1Cl [Compound 11a, (3S)-3-({[3-chloro-4-({[5-{1-[4-chloro-3-(methyloxy)phenyl]-1-methylethyl}-1-(4-fluorophenyl)-1H-imidazol-2-yl]thio}methyl)-5-fluorophenyl]sulfonyl}amino)-1,1-dimethylpiperidinium]	< 100 nM	< 100 nM
COc1cc(C(C)(C)c2cnc(SCc3c(F)cc(S(=O)(=O)N(CCC[N+](C)(C)C)[C@@H](C)C(=O)O)cc3F)n2-c2ccc(F)cc2)ccc1Cl [Compound 14b, (S)-3-(N-(1-carboxyethyl)-4-((5-(2-(4-chloro-3-methoxyphenyl)propan-2-yl)-1-(4-fluorophenyl)-1H-imidazol-2-ylthio)methyl)-3,5-difluorophenylsulfonamido)-N,N,N-trimethylpropan-1-aminium 2,2,2-trifluoroacetate]	< 100 nM	< 100 nM
COc1cc(C(C)(C)c2cnc(SCc3c(F)cc(S(=O)(=O)N4CC[C@@H](C[N+](C)(C)C)C4)cc3Cl)n2-c2ccc(F)cc2)ccc1F [Compound 11v, [(3S)-1-{[3-chloro-5-fluoro-4-({[5-(1-[4-fluoro-3-(methyloxy)phenyl]-1-methylethyl}-1-(4-fluorophenyl)-1H-imidazol-2-yl]thio}methyl)phenyl]sulfonyl}pyrrolidin-3-yl]-N,N,N-trimethylmethanaminium]	< 100 nM	< 100 nM
2-({[3-chloro-5-fluoro-4-({[5-{1-[4-fluoro-3-(methyloxy)phenyl]-1-methylethyl}-1-(4-fluorophenyl)-1H-imidazol-2-yl]thio}methyl)phenyl]carbonyl}amino)-N,N,N-trimethylethanaminium [Example 1d]	< 100 nM	< 100 nM
COc1cc(C(C)(C)c2cnc(SCc3c(F)cc(S(=O)(=O)N(C)[C@H](CCC[N+](C)(C)C)C(=O)O)cc3F)n2-c2ccc(F)cc2)ccc1Cl [Compound 17c, (R)-4-carboxy-4-(4-((5-(2-(4-chloro-3-methoxyphenyl)propan-2-yl)-1-(4-fluorophenyl)-1H-imidazol-2-ylthio)methyl)-3,5-difluoro-N-methylphenylsulfonamido)-N,N,N-trimethylbutan-1-aminium 2,2,2-trifluoroacetate]	< 100 nM	< 100 nM
COc1cc(C(C)(C)c2cnc(SCc3cc(S(=O)(=O)N(CCC[N+](C)(C)C)CCC[N+](C)(C)C)c(F)cc3Cl)n2-c2ccc(F)cc2)ccc1Cl [Example 6p, 3,3′-({[4-chloro-5-({[5-{1-[4-chloro-3-(methyloxy)phenyl]-1-methylethyl}-1-(4-fluorophenyl)-1H-imidazol-2-yl]thio}methyl)-2-fluorophenyl]sulfonyl}imino)bis(N,N,N-trimethylpropan-1-aminium)]	100 to 1000 nM	100 to 1000 nM
COc1cc(-n2c(C(C)(C)c3ccc4onc(N)c4c3)cnc2SCc2c(F)cc(C(=O)N[C@H]3CC[N+](C)(C)C3)cc2F)ccc1F [Example 2k, (3S)-3-[({4-[({5-[1-(3-amino-1,2-benzisoxazol-5-yl)-1-methylethyl]-1-[4-fluoro-3-(methyloxy)phenyl]-1H-imidazol-2-yl}thio)methyl]-3,5-difluorophenyl}carbonyl)amino]-1,1-dimethylpyrrolidinium]	< 100 nM	< 100 nM
COc1cc(C(C)(C)c2cnc(SCc3c(F)cc(CCC[N+](C)(C)C)cc3F)n2-c2ccc(F)cc2)ccc1Cl [Compound 19a, 3-(4-((5-(2-(4-chloro-3-methoxyphenyl)propan-2-yl)-1-(4-fluorophenyl)-1H-imidazol-2-ylthio)methyl)-3,5-difluorophenyl)-N,N,N-trimethylpropan-1-aminium 2,2,2-trifluoroacetate]	< 100 nM	< 100 nM
COc1cc(C(C)(C)c2cnc(SCc3c(F)cc(S(=O)(=O)N(CCC[N+](C)(C)C)[C@H](C)CC(=O)O)cc3Cl)n2-c2ccc(F)cc2)ccc1Cl [Compound 14aj, (R)-3-(N-(1-carboxypropan-2-yl)-3-chloro-4-((5-(2-(4-chloro-3-methoxyphenyl)-propan-2-yl)-1-(4-fluorophenyl)-1H-imidazol-2-ythio)methyl)-5-fluorophenyl-sulfonamido)-N,N,N-trimethylpropan-1-aminium 2,2,2-trifluoroacetate]	< 100 nM	< 100 nM
COc1cc(C(C)(C)c2cnc(SCc3c(F)cc(C(=O)NCC[N+]4(C)CCOCC4)cc3Cl)n2-c2ccc(F)cc2)ccc1Cl [Example 2j, 4-[2-({[3-chloro-4-({[5-{1-[4-chloro-3-(methyloxy)phenyl]-1-methylethyl}-1-(4-fluorophenyl)-1H-imidazol-2-yl]thio}methyl)-5-fluorophenyl]carbonyl}amino)ethyl]-4-methylmorpholin-4-ium]	1000 to 10000 nM	1000 to 10000 nM
COc1cc(C(C)(C)c2cnc(SCc3c(F)cc(C(=O)N[C@H]4CCC[N+](C)(C)C4)cc3Cl)n2-c2ccc(F)cc2)ccc1Cl [Example 2d, (3S)-3-({[3-chloro-4-({[5-{1-[4-chloro-3-(methyloxy)phenyl]-1-methylethyl}-1-(4-fluorophenyl)-1H-imidazol-2-yl]thio}methyl)-5-fluorophenyl]carbonyl}amino)-1,1-dimethylpiperidinium]	< 100 nM	< 100 nM
COc1cc(C(C)(C)c2cnc(SCc3c(F)cc(S(=O)(=O)N(CCCCC[N+](C)(C)C)[C@H](C)C(=O)O)cc3Cl)n2-c2ccc(F)cc2)ccc1Cl [Compound 14ad, 5-([(1R)-1-carboxyethyl]{[3-chloro-4-({[5-{1-[4-chloro-3-(methyloxy)phenyl]-1-methylethyl}-1-(4-fluorophenyl)-1H-imidazol-2-yl]thio}methyl)-5-fluorophenyl]sulfonyl}amino)-N,N,N-trimethylpentan-1-aminium]	< 100 nM	< 100 nM
COc1cc(C(C)(C)c2cnc(SCc3c(F)cc(S(=O)(=O)NCCC[n+]4ccn(C)c4)cc3Cl)n2-c2ccc(F)cc2)ccc1F [Compound 10, 3-(3-(3-chloro-5-fluoro-4-((5-(2-(4-fluoro-3-methoxyphenyl)propan-2-yl)-1-(4-fluorophenyl)-1H-imidazol-2-ylthio)methyl)phenylsulfonamido)propyl)-1-methyl-1H-imidazol-3-ium methanesulfonate]	< 100 nM	< 100 nM
COc1cc(C(C)(C)c2cnc(SCc3c(F)cc(S(=O)(=O)N(CCC[n+]4ccccc4)[C@H](C)C(=O)O)cc3Cl)n2-c2ccc(F)cc2)ccc1Cl [Compound 15a, (R)-1-(3-(N-(1-carboxyethyl)-3-chloro-4-((5-(2-(4-chloro-3-methoxyphenyl)propan-2-yl)-1-(4-fluorophenyl)-1H-imidazol-2-ylthio)methyl)-5-fluorophenylsulfonamido)propyl)pyridinium chloride]	< 100 nM	< 100 nM
COc1cc(C(C)(C)c2cnc(SCc3cc(S(=O)(=O)NCCC[N+](C)(C)C)c(F)cc3Cl)n2-c2ccc(F)cc2)ccc1Cl [Example 7, 3-(4-Chloro-5-((5-(2-(4-chloro-3-methoxyphenyl)propan-2-yl)-1-(4-fluorophenyl)-1H-imidazol-2-ylthio)methyl)-2-fluorophenylsulfonamido)-N,N,N-trimethylpropan-1-aminium 2,2,2-trifluoroacetate]	< 100 nM	< 100 nM
COc1cc(C(C)(C)c2cnc(SCc3c(F)cc(S(=O)(=O)N[C@H](CCCC[N+](C)(C)C)C(=O)O)cc3Cl)n2-c2ccc(F)cc2)ccc1Cl [Compound 17i, (R)-5-carboxy-5-(3-chloro-4-((5-(2-(4-chloro-3-methoxyphenyl)propan-2-yl)-1-(4-fluorophenyl)-1H-imidazol-2-ylthio)methyl)-5-fluorophenylsulfonamido)-N,N,N-trimethylpentan-1-aminium 2,2,2-trifluoroacetate]	< 100 nM	< 100 nM
